# Data from paper PMC10244169, “Psychedelics promote plasticity by directly binding to BDNF receptor TrkB” (Nature Neuroscience, 2023).
# Tests used:
# [1] = Supplementary Table 3 legend; source not stated; cited from earlier work
# [2] = target: T1, TrkB (Rattus norvegicus, UniProt Q63604); experiment: biochemical; format: binding; conditions: for displacement of ^3H-LSD from TrkB: 1 nM to 10 µM of drug; for K (one phase exponential decay, best-fit) / Plateau (one phase exponential decay, best-fit) / Span (one phase exponential decay, best-fit): ext fig 1h
# T1 construct: expressed in transfected cells; host or cells: HEK293T
# T1 sequence (Q63604 32-821): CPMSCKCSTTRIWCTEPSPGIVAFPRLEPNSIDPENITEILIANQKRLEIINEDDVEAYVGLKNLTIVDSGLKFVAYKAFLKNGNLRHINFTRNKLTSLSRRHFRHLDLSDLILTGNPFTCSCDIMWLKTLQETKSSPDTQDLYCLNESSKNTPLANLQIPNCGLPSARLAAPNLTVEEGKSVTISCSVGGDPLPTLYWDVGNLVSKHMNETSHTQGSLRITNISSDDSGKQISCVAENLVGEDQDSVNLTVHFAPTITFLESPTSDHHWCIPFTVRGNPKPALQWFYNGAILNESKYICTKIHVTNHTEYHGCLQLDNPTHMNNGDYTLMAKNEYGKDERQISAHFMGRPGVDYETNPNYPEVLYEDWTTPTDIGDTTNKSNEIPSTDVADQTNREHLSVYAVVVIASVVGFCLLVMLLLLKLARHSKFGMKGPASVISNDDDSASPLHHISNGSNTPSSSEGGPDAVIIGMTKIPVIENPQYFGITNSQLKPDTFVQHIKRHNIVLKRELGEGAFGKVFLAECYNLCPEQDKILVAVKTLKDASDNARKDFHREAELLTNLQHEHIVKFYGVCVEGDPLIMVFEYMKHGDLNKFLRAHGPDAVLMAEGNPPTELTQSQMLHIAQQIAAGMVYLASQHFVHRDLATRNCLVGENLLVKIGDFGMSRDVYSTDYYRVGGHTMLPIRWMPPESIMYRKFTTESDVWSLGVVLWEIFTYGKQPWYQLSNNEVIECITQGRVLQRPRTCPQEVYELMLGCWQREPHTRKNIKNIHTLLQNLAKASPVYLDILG
# [3] = test system: TrkB; experiment: Western blot of TrkB protein expression in N2a cells; format: cell-based; conditions: WT and Y433F^+/−
# Description: In a separate set of experiments to examine the effect of 5-HT2A activation, M100907 (100 nM) was administered as a 10 min pretreatment and remained in the medium for the rest of the experiment. Next, cells were lysed and centrifuged. […] The co-immunoprecipitation was carried out as previously described[11],[23],[24] with minor modifications. Briefly, Magnetic Dynabeads Protein G (Invitrogen, 10004D) were coated with anti-TrkB antibody (R&D Systems, AF1494) at 200 ng of antibody per 1 µl of beads in rotation (2 h, 4 °C). Finally, lysates were mixed with the coated beads (100 µg of total protein per 15 µl of beads) and incubated in rotation (overnight, 4 °C).
# Proteins were separated according to their molecular weight by SDS–PAGE and transferred to a polyvinylidene fluoride membrane. Membranes were incubated with the following primary antibodies (all 1:1,000 in 3% BSA in TBS-T, overnight, 4 °C): anti-TrkB (R&D Systems, AF1494), anti-β-actin (Sigma-Aldrich, A1978), anti-phospho-mTOR (Cell Signaling Technology, 5536S), anti-phospho-p44/42 MAPK (Erk1/2) (Cell Signaling Technology, 9106S), anti-mTOR (Cell Signaling Technology, 2972S) and anti-p44/42 MAPK (Erk1/2) (Cell Signaling Technology, 9102S). […] Protein bands were visualized using enhanced chemiluminescent substrate (Thermo Scientific, 32132, ECL Plus) and imaged with a charge-coupled device camera (G:BOX, Syngene).
# [4] = test system: dendritic arbor complexity of neuronal cultures; experiment: Dendritogenesis (Sholl analysis) in neuronal cultures (WT and Y433F^+/−); format: cell-based, mouse; conditions: for e6e group mean (dendritogenesis, Sholl analysis): BDNF; for e6e Mean Diff. (Veh. minus BDNF): uncorrected Fisher's LSD
# Description: In a separate set of experiments to study the effects of extracellular BDNF and 5-HT2A activation, cultures were also pretreated for 10 min with TrkB.FC (200 ng ml^−1) or M100907 (100 nM), respectively. Similar to treatment with the psychedelics, TrkB.FC and M100907 pretreatments were administered in cumulative doses and remained in the medium for the rest of the experiment. At DIV7, neurons were pre-incubated for 1 h with […] MgCl2 to prevent excitotoxicity, then neurons were transfected for the heterologous expression of mCherry. To minimize any possible interference of the transfection protocol upon the drug effect, transfection was done in the morning while treatment with psychedelics was always added in the evening. Twenty-four hours after transfection, neurons were fixed with 4% PFA for 20 min at room temperature, washed in PBS-T, blocked for 30 min with 3% BSA in PBS-T and incubated with chicken anti-MAP2 (Abcam, ab5392; 1:5,000, 1 h, room temperature). Then, coverslips were washed in PBS-T and incubated with Alexa Fluor 647-conjugated antibody goat anti-chicken (Invitrogen, A-21449; 1:1,000, 1 h, room temperature). Next, coverslips were washed in PBS-T and MilliQ water, and mounted in Dako fluorescence mounting medium (Agilent, S302380-2). Ten optical sections with a Z-step of 1.3 μm were acquired using a Zeiss LSM 710 confocal microscope with a LCI Plan/Neofluar 25×/0.8 lmm Korr DIC M27 objective. In the mCherry channel, the center of the soma was manually assigned and the number of dendritic intersections at fixed distances (every 5 μm) from the soma was automatically counted using the Sholl analysis plugin of ImageJ.
# [5] = target: the molecule itself; experiment: NMR titration; 1H,15N-HSQC spectra of TrkB TMD in DMPC/DHPC bicelles at various lipid-to-protein ratios, 40 °C, pH 6.0; monomer to dimer
molecule,measurement,setting,value
CN1C[C@H](C(=O)N[C@]2(C)O[C@@]3(O)[C@@H]4CCCN4C(=O)[C@H](Cc4ccccc4)N3C2=O)C[C@@H]2c3cccc4[nH]cc(c34)C[C@H]21 [dihydroergotamine],pKa,[1],6.75
same,displacement of ^3H-LSD from TrkB,[2],fail to displace ^3H-LSD
same,"K (one phase exponential decay, best-fit)",[2],5.40E+07
same,"Plateau (one phase exponential decay, best-fit)",[2],93.57
same,"Span (one phase exponential decay, best-fit)",[2],15.09
BDNF: Brain-derived neurotrophic factor,total TrkB expression,[3],No differences in total TrkB expression
same,"e6f Sholl profile, mean","[4]; WT + BDNF, distance from soma 10 µm",6.929
same,"e6f Sholl profile, mean","[4]; WT + BDNF, distance from soma 15 µm",9.643
same,"e6f Sholl profile, mean","[4]; WT + BDNF, distance from soma 20 µm",7.929
same,"e6f Sholl profile, mean","[4]; WT + BDNF, distance from soma 25 µm",7.929
same,"e6f Sholl profile, mean","[4]; WT + BDNF, distance from soma 30 µm",6
same,"e6f Sholl profile, mean","[4]; WT + BDNF, distance from soma 35 µm",4.5
same,"e6f Sholl profile, mean","[4]; WT + BDNF, distance from soma 40 µm",3.857
same,"e6f Sholl profile, mean","[4]; WT + BDNF, distance from soma 45 µm",3.571
same,"e6f Sholl profile, mean","[4]; WT + BDNF, distance from soma 50 µm",2.714
same,"e6f Sholl profile, mean","[4]; WT + BDNF, distance from soma 55 µm",2.429
same,"e6f Sholl profile, mean","[4]; WT + BDNF, distance from soma 60 µm",2.786
same,"e6f Sholl profile, mean","[4]; WT + BDNF, distance from soma 65 µm",2.643
same,"e6f Sholl profile, mean","[4]; WT + BDNF, distance from soma 70 µm",3.143
same,"e6f Sholl profile, mean","[4]; WT + BDNF, distance from soma 75 µm",2.929
same,"e6f Sholl profile, mean","[4]; WT + BDNF, distance from soma 80 µm",2.714
same,"e6f Sholl profile, mean","[4]; WT + BDNF, distance from soma 85 µm",2.786
same,"e6f Sholl profile, mean","[4]; WT + BDNF, distance from soma 90 µm",2.286
same,"e6f Sholl profile, mean","[4]; WT + BDNF, distance from soma 95 µm",1.857
same,"e6f Sholl profile, mean","[4]; WT + BDNF, distance from soma 100 µm",1.857
same,"e6e group mean (dendritogenesis, Sholl analysis)","[4]; WT neuronal cultures, n=14",78.5
same,e6e Mean Diff. (Veh. minus BDNF),[4]; WT:Veh. vs. WT:BDNF,-30.1
same,"e6f Sholl profile, mean","[4]; Y433F+/- + BDNF, distance from soma 10 µm",8.0625
same,"e6f Sholl profile, mean","[4]; Y433F+/- + BDNF, distance from soma 15 µm",9.4375
same,"e6f Sholl profile, mean","[4]; Y433F+/- + BDNF, distance from soma 20 µm",10.25
same,"e6f Sholl profile, mean","[4]; Y433F+/- + BDNF, distance from soma 25 µm",8.8125
same,"e6f Sholl profile, mean","[4]; Y433F+/- + BDNF, distance from soma 30 µm",8.1875
same,"e6f Sholl profile, mean","[4]; Y433F+/- + BDNF, distance from soma 35 µm",6.3125
same,"e6f Sholl profile, mean","[4]; Y433F+/- + BDNF, distance from soma 40 µm",5.375
same,"e6f Sholl profile, mean","[4]; Y433F+/- + BDNF, distance from soma 45 µm",5.1875
same,"e6f Sholl profile, mean","[4]; Y433F+/- + BDNF, distance from soma 50 µm",3.9375
same,"e6f Sholl profile, mean","[4]; Y433F+/- + BDNF, distance from soma 55 µm",3.6875
same,"e6f Sholl profile, mean","[4]; Y433F+/- + BDNF, distance from soma 60 µm",3.25
same,"e6f Sholl profile, mean","[4]; Y433F+/- + BDNF, distance from soma 65 µm",2.5625
same,"e6f Sholl profile, mean","[4]; Y433F+/- + BDNF, distance from soma 70 µm",2.5
same,"e6f Sholl profile, mean","[4]; Y433F+/- + BDNF, distance from soma 75 µm",1.875
same,"e6f Sholl profile, mean","[4]; Y433F+/- + BDNF, distance from soma 80 µm",2
same,"e6f Sholl profile, mean","[4]; Y433F+/- + BDNF, distance from soma 85 µm",1.625
same,"e6f Sholl profile, mean","[4]; Y433F+/- + BDNF, distance from soma 90 µm",1.4375
same,"e6f Sholl profile, mean","[4]; Y433F+/- + BDNF, distance from soma 95 µm",1.75
same,"e6f Sholl profile, mean","[4]; Y433F+/- + BDNF, distance from soma 100 µm",1.3125
same,"e6e group mean (dendritogenesis, Sholl analysis)","[4]; Y433F+/- neuronal cultures, n=16",87.56
same,e6e Mean Diff. (Veh. minus BDNF),[4]; Y433F+/-:Veh. vs. Y433F+/-:BDNF,-34.03
same,dendritic arbor complexity,[4]; cultures from WT mice,increases dendritic arbor complexity
same,dendritic arbor complexity,[4]; cultures from Y433F^+/− mice,increased dendritic arbor complexity
C=CCN1C[C@H](C(=O)N(CCCN(C)C)C(=O)NCC)C[C@@H]2c3cccc4[nH]cc(c34)C[C@H]21 [cabergoline],pKa,[1],6.22
same,displacement of ^3H-LSD from TrkB,[2],fail to displace ^3H-LSD
same,"K (one phase exponential decay, best-fit)",[2],776405
same,"Plateau (one phase exponential decay, best-fit)",[2],113.3
same,"Span (one phase exponential decay, best-fit)",[2],-10.49
"TDKTGREHLSVYAVVVIASVVGFCLLVMLFLLKLARHSKFGMKG (domain or fragment, UniProt Q16620 423-466, looked up, human TrkB, transmembrane residues T423-G466, UniProt Q16620; 15N- or 15N,13C-labelled; Cloned by NdeI and HindIII into pGEMEX1) [TrkB TMD (transmembrane residues of human TrkB, T423-G466)]",binding result,[5],binds
